In BindingDB's records for PubMed 7562491 (Zeneca Pharmaceuticals, 1995):
Values joined by “and” are separate entries in the source; they are usually repeats but may differ in a detail not shown here. Equal values may be shown once.

Assays:
Substance-K receptor [1] = molecular target: T1, Substance-K receptor (Mesocricetus auratus, UniProt P51144)
T1 sequence (P51144 whole entry): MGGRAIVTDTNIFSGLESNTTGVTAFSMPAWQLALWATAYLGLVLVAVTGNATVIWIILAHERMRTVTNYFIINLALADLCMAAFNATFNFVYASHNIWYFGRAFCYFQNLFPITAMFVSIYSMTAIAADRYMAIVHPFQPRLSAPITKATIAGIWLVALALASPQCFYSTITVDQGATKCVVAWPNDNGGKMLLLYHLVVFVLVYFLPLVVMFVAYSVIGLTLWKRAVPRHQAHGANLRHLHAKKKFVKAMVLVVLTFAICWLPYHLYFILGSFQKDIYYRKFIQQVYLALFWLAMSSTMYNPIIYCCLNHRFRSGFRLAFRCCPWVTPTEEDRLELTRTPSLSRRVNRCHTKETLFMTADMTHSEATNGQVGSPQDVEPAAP

Substance-K receptor [2] = molecular target: T2, Substance-K receptor (Homo sapiens, UniProt P21452)
T2 sequence (P21452 whole entry): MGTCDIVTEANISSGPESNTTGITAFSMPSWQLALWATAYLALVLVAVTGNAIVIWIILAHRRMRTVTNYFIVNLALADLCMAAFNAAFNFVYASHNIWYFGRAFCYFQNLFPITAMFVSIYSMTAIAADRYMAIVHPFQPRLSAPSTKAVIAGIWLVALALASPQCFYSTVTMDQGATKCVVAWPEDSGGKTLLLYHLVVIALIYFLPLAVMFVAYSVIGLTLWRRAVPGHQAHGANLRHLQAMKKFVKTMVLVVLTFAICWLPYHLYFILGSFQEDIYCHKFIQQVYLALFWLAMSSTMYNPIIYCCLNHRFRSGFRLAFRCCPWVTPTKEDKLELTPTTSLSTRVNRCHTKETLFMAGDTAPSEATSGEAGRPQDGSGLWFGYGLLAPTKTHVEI

Substance-P receptor = Substance-P receptor (Cavia porcellus, UniProt P30547)
Chain of Substance-P receptor (P30547 whole entry): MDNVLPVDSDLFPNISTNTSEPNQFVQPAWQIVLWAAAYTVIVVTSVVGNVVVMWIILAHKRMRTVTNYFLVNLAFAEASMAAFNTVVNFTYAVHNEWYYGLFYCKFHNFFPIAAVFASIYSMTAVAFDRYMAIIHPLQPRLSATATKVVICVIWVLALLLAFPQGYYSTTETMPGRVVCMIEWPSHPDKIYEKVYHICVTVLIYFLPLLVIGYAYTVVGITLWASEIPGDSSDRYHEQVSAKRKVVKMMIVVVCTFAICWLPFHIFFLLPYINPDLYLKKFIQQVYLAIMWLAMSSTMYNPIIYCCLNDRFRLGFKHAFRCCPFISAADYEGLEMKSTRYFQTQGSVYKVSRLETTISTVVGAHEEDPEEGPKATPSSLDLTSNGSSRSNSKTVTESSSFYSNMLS

O=C1c2nc(N3CCOCC3)nc(Nc3ccc(Cl)cc3)c2CN1CCN1CCOCC1 [COMPOUND II]
Ki (Substance-K receptor [1]): 0.041 µM and 0.039 µM
Ki (Substance-K receptor [2]): 0.187 µM

CC(C)N1Cc2c(Nc3ccc(Cl)cc3)nc(N3CCN(C(=O)Cc4[nH]c(=O)[nH]c4O)CC3)nc2C1=O [COMPOUND I]
Ki (Substance-K receptor [1]): 0.018 µM and 0.017 µM
Ki (Substance-K receptor [2]): 0.188 µM

CC(N=O)C(=O)N1CCN(c2nc(Nc3ccc(Cl)cc3)c3c(n2)C(=O)N(C(C)C)C3)CC1 (configuration not stated) [ZM253,270]
Ki (Substance-K receptor [1]): 0.0022 µM and 0.002 µM
Ki (Substance-P receptor): 9.77 µM
Ki (Substance-K receptor [2]): 0.105 µM
